Measured values as given in patent publication US7858610B2, “Preventive and/or remedy for lower urinary tract diseases containing EP4 agonist” (Ono Pharmaceutical Co., Ltd., priority 2004, dated 2010).

Test system: model of cyclophosphamide-induced cystitis in rats
Test: Cystometry in the model of cyclophosphamide-induced cystitis in rats
Type: in vivo, rat
Details: for decrease of the bladder compliance induced by cyclophosphamide: bladder capacity divided by voiding pressure
Procedure: Female Wistar rats (around 9 weeks old) were anesthetized with sodium pentobarbital (40 mg/kg, i.p.). After median incision of the hypogastrium, the top of bladder was incised. A catheter for use in cystometry was filled with physiological saline and then was inserted through the top hole into bladder. The other end of the catheter was fixed subcutaneously in the dorsal part. 0.1 mL Vicillin S500 (Meiji Seika Kaisha, Ltd.; 100 mg titers/mL distilled water/rat) was injected into the buttock muscle. Then, the rats were fed for 6 days or more, and subsequently subjected to the following treatment.
The model of cyclophosphamide-induced cystitis was prepared by a single dose intraperitoneal administration of cyclophosphamide (Sigma; 150 mg/kg). Distilled water is administered intraperitoneally for the control group.
The test compound of each dose was administrated orally 30 minutes before the treatment of cyclophosphamide, and 4, 20, 30 and 45 hours after the treatment of cyclophosphamide. The solvent group (hereinafter, it may be referred to as vehicle.) was administrated distilled water which is the solvent of the test compound. The following cystometry was carried out 48 hours after the treatment of cyclophosphamide.
The rats anesthetized with diethyl ether were kept in ballman cage. The tip of the indwelling catheter for use in measurement of voiding pressure was connected through a three-way valve. Another end of the three-way valve was connected to a pressure transducer, while the other end was connected to a syringe for intravesical injection which was mounted on an infusion pump. A signal of voiding pressure was recorded using an amp recorder of strain pressure
After awaking from anesthesia, saline was injected into the bladder of the rats at a rate of 2.85 mL/h. After the pattern of the micturition reflex was stable, the residual urine was removed. Afterwards, saline was injected again into the bladder at a rate of 2.85 mL/h, and the voiding pressure and the urination interval were measured. The bladder capacity was calculated from the urination interval. The bladder compliance was calculated by dividing the bladder capacity by the voiding pressure.

[1] = 1000 μg/kg orally, cyclophosphamide-induced cystitis, female Wistar rats

Row | Compound | decrease of the bladder compliance induced by cyclophosphamide (300 μg/kg orally, 30 min before and 4, 20, 30 and 45 h after cyclophosphamide (150 mg/kg i.p.), cystometry 48 h after, FIG. 2) | decrease of the bladder capacity induced by cyclophosphamide (300 μg/kg orally, 30 min before and 4, 20, 30 and 45 h after cyclophosphamide (150 mg/kg i.p.), cystometry 48 h after, female Wistar rats, FIG. 1) | voiding pressure (oral administration, regardless of the presence of the cyclophosphamide treatment, FIG. 3) | decrease of the bladder capacity induced by cyclophosphamide [1] | decrease of the bladder compliance induced by cyclophosphamide [1]
1 | O=C(O)CCCSCCN1C(=O)CC[C@@H]1/C=C/[C@@H](O)Cc1ccc(F)cc1 [compound 1, 4-[(2-{(2R)-2-[(1E,3S)-4-(4-fluorophenyl)-3-hydroxybut-1-enyl]-5-oxopyrrolidin-1-yl}ethyl)sulfanyl]butanoic acid] | improved | improved | decreased | – | –
2 | methyl 4-{[2-((1R,2R,3R)-3-hydroxy-2-{(1E,3S)-3-hydroxy-4-[3-(methoxymethyl)phenyl]but-1-enyl}-5-oxocyclopenty)ethyl]sulfanyl}butanoate α-cyclodextrin clathrate [compound 2] | – | – | – | improved | improved
